Entries after “also recorded” stand apart in the source; their conditions may differ.
Experiments:
[1] = test system: 3D-cultured human blastoids (WIBR3 OCT4-GFP background); assay: Post implantation WNT modulation of 3D-cultured blastoids; assay type: cell-based; conditions: for OCT4-GFP reporter area (ratio of OCT4-GFP area: total blastoid area; EPI compartment) / OCT4-GFP signal intensity / invasive trophoblast projections / overall blastoid size (area): 2 μM in N2B27+E2, D8 to D14, 3D ECM, analysed at D14, vs control; for CTB shell: 2 μM, 6 days of treatment, D14 of 3D culture
Text: Blastoids can be transferred on either day 7 or day 8 of growth. Due to the inaccessibility of commercially available extracellular matrix products during the experimentation phases of this project, multiple matrices were utilized in this study-hESC qualified growth factor-reduced Matrigel (Corning), hESC qualified growth factor reduced Geltrex (Gibco), and Cultrex UltriMatrix reduced growth factor basement membrane extract (R&D, BME001). […] Matrices were thawed on ice and kept cold until crosslinking was desired. Matrices mixed together (Matrigel/geltrex) were mixed following thawing and plated into ibidi microwells (120 μL/well) (ibidi, 80826) or alternatively 96 well plates (40 μL/well). Matrices were solidified at 37° C. for 30 minutes. Wash matrices 2 times with DMEM/F12 before adding blastoids. Add N2B27+10 nM estradiol without antibiotics to each well. Plate desired numbers of blastoids to each well (3-5 in an ibidi microwell, 1-2 in a 96 well plate). Place the plate in the incubator (37° C., 5% CO2, 5% 02) for 24 hours. Replace media daily with N2B27+10 nM estradiol without antibiotics. If blastoids are added at 7 days, the following day they may be loosely attached. Wait approximately 28-30 hours following seeding to ensure blastoids are well anchored before changing medium. Polar TE side attaches and the ICM expands compared to the day before when properly attached. On the following day (day 9) the TE collapses. Migratory EVT emerge at day 13. Maintaining proper pH is important for blastoids post implantation, the medium should be at pH=7.2-7.4 by pre-equilibration in the incubator or use freshly made N2B27 that has not oxidized too excessively (media should be pink/orange in color, never purple). WIBR3 OCT4-GFP blastoids were grown to 7 days in blastoid generating conditions (see above) and blastoids with localized single ICM, continuous trophectoderm, and with a round blastocoel cavity were chosen by hand and plated upon a pre-formed 3D matrix (Cultrex UltriMatrix) formed with a 96 well plate (40 μL of Cultrex per well). 2 blastoids per well were plated among 10 wells for each condition in N2B27+1 mM Na Pyruvate+10 nM Estradiol (E2). Blastoids were allowed to attach for approximately 24-30 hours in the incubator (5% CO2, 5% O2, 37° C., 100% humidity). When blastoids attached, TE collapsed, and ICM expanded, medium was changed to N2B27+1 mM Na Pyruvate+10 nM E2+2 μM XAV939 or +2 μM CHIR99021. Media was changed daily and grown in a 37° C., 5% CO2, 5% O2 incubator. Blastoids were fixed in 4% paraformaldehyde as described above on day 14 of total blastoid growth.

[2] = test system: WIBR3 OCT4-GFP naïve hPSCs; assay: Blastoid formation (cavitation) from 5i/L/A naïve hPSCs in Aggrewells; assay type: cell-based, human; conditions: for rate of cavitation on omission of the component from the blastoid media: component omitted/removed (Conditions 2-4), D7
Procedure: Naïve hPSCs were dissociated with Accutase for 5 minutes at 37° C. Single cell dissociate naïve stem cells and inactivate accutase enzymes with fibroblast medium. Centrifuge this suspension 1000 rpm for 5 minutes. Remove supernatant and wash once with DMEM/F12, centrifuge 1000 rpm for 5 minutes. Aspirate supernatant and resuspend in 2 mL of 5i/L/A medium. Remove iMEFs from the cell suspension by incubation on gelatin-coated plates for 30-45 minutes at 37° C. 5% CO2. Collect cells and count cells to plate 100,000 cells per 24 well Aggrewell (StemCell Technologies) well. Coat the aggrewells with Anti-adherence solution (StemCell Technologies) for 10 minutes at room temperature. Wash wells once with DMEM/F12, then add 1 mL of 5i/L/A medium. Add naïve stem cells to Aggrewells, 100,000 cells per 500 μL, total medium should be 1.5 mL per well. Centrifuge the plate 1000 rpm for 2 minutes for equal distribution of cell number per microwell. Incubate at 37° C. 5% CO2 and 5% 02 for one day. […]
Cavitation rate was determined by counting individual aggregates at 7 days of blastoid growth in at least 3 24-well wells per condition. Tile scan images of the entire well were stitched together and aggregates vs. cavitated aggregates were manually counted in ImageJ. […] Significance determined by a 1-way ANOVA with multiple comparisons. *p<0.05, **p<0.01.
Blastoid size was determined with ImageJ software by drawing a circle around the entire blastoid, and diameters determined by a single line drawn across the widest apparent part of the blastoid (day 7 n=1901; day 8 n=18). Inner cell mass size was determined by utilizing the OCT4-GFP channel and manually drawing around the brightest region of GFP+ areas (control n=152 blastoids; —CHIR n=130). Significance determined with Welch's t-test, ****p<0.0001.

Row | Molecule | OCT4-GFP reporter area (ratio of OCT4-GFP area: total blastoid area; EPI compartment) [1] | OCT4-GFP signal intensity [1] | invasive trophoblast projections [1] | overall blastoid size (area) [1] | CTB shell [1] | rate of cavitation on omission of the component from the blastoid media [2] | TE expansion (ICM:TE ratio based on OCT4-GFP reporter activity) on omission of the component ([2]; component omitted (Condition 2))
1 | Oc1nc(-c2ccc(C(F)(F)F)cc2)nc2c1CSCC2 [XAV939] | notable expansion | increase in signal intensity | significantly fewer invasive trophoblast projections | reduced | reduction of the CTB shell |  | 
2 | LIF: recombinant human leukemia inhibitory factor (PeproTech) |  |  |  |  |  | without adversely affecting the rate of cavitation | 
3 | Cc1c[nH]c(-c2cnc(NCCNc3ccc(C#N)cn3)nc2-c2ccc(Cl)cc2Cl)n1 [CHIR99021] | reduced ratio of OCT4-GFP+ cells | diminished intensity of OCT4-GFP reporter activity | significantly fewer invasive trophoblast projections | larger; also recorded: increased | expansion of the CTB shell | enhanced the rate of cavitation | specifically promotes TE expansion
